Assay results taken from patent publication US9346769B2, “Tetrazolones as inhibitors of fatty acid synthase” (Infinity Pharmaceuticals, Inc., priority 2010, dated 2016).
pIC50: −log10 of the molar value.

Target: T1, human FASN (Homo sapiens, UniProt P49327)
T1 construct: was purified from SKBR3 cells using procedures modified from those in Jayakumar et al; endogenous in cells; host or cells: SKBR3 human breast cancer cells (ATCC); Endogenous enzyme purified by ammonium sulfate precipitation and a mono Q column
T1 sequence (P49327 whole entry): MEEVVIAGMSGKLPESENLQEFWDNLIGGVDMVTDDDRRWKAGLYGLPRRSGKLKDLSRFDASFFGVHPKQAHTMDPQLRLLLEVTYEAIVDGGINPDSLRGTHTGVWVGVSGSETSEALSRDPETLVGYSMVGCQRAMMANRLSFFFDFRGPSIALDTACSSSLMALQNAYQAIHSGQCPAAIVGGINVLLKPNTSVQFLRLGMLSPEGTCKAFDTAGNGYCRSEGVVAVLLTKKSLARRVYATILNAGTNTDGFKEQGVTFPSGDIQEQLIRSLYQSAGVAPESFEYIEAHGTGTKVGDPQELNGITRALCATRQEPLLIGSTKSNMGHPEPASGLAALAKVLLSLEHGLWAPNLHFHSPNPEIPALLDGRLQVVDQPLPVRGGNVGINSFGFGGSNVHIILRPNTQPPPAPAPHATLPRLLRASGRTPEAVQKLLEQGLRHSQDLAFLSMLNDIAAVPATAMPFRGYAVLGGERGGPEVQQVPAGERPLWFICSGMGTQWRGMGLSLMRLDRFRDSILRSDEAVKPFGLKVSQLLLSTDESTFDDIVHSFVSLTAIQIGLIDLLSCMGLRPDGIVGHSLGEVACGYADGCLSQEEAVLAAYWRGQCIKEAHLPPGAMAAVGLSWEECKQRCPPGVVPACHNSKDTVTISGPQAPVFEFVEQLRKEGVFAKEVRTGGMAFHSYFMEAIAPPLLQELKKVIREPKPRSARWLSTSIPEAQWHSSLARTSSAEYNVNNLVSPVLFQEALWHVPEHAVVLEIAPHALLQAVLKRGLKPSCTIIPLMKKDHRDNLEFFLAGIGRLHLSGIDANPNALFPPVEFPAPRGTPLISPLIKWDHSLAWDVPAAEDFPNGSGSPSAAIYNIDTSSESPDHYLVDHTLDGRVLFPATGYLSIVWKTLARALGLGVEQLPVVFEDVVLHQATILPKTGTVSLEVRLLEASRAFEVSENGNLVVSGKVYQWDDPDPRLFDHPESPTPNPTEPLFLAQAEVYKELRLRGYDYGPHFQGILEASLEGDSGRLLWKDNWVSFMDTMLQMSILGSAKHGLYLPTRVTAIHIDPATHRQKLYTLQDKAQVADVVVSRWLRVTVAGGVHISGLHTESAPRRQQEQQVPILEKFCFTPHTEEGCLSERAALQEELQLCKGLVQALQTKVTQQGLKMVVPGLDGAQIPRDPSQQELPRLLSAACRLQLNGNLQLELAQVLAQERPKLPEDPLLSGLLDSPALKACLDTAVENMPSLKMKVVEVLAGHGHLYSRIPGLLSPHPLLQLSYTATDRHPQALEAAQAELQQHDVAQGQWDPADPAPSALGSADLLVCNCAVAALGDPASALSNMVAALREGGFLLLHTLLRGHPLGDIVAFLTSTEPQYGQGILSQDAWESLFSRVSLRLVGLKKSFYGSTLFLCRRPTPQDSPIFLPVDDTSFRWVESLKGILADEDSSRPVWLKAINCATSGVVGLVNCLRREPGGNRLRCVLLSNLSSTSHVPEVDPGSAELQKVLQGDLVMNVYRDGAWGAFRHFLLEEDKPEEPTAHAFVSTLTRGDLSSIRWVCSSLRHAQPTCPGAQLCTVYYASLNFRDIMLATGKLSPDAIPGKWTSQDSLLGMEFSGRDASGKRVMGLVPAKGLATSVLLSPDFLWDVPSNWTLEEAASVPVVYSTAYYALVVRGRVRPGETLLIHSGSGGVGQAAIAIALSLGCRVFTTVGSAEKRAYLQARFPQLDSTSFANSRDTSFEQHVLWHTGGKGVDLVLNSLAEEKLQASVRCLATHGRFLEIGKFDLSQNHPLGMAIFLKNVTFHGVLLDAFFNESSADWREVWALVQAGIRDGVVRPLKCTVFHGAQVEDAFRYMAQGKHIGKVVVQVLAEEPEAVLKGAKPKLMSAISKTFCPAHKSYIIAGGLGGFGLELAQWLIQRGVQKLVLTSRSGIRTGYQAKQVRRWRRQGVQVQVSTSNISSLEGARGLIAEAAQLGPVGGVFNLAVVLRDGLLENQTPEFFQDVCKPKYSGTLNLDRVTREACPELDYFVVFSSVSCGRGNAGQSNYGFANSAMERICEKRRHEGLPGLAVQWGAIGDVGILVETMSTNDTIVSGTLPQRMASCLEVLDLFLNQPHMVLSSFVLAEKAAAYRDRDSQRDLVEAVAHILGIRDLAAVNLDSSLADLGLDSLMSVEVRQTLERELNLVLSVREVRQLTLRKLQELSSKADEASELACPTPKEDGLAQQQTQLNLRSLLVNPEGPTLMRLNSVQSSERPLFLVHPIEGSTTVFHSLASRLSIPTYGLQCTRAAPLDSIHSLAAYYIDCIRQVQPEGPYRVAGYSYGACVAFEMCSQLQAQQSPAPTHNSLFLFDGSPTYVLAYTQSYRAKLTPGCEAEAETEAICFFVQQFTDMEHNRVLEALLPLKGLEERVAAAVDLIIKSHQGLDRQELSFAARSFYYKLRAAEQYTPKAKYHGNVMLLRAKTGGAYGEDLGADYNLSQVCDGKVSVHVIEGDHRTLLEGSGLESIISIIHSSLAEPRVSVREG
Test: FASN NADPH Consumption Assay
Assay type: biochemical
Settings: human FASN purified from SKBR3 cells; starred symbols
Procedure: Human FASN protein (SEQ ID NO. 1) was purified from SKBR3 cells using procedures modified from those in Jayakumar et al. PNAS 1995, 92:8695-8699. SKBR3 cells were obtained from ATCC and grown in DMEM high glucose medium supplemented with 10% FBS, 1 μg/mL bovine pancreas insulin, 100 U/mL penicillin and 100 µg/mL streptomycin. The confluent cells were trypsinized and washed three times with PBS buffer before frozen in liquid N2 and stored at −80° C. Frozen cells were thawed on ice and resuspended in lysis buffer (25 mM Tris-HCl, pH 7.0, 15 mM NaCl, 1 mM EDTA, and 1 mM DTT) with protease inhibitors. The cells were lysed by sonication, and the cell debris was removed by centrifugation at 20,000 rpm for 30 min. To the supernatant, neutralized saturated ammonium sulfate solution was added to a final concentration of 35%. The solution was left on ice for 1 hr, and the precipitated proteins were harvested by centrifugation at 20,000 rpm for 30 min. The proteins were redissolved in lysis buffer without NaCl and loaded on a mono Q column. Bound proteins were eluted with a linear gradient of NaCl in lysis buffer. Each fraction was analyzed by SDS-PAGE and FASN NADPH consumption assay. The fractions containing FASN were pooled and concentrated to 2-3 mg/mL. Glycerol was added to 20%, and the protein was frozen in liquid N2 and stored at −80° C.
All chemicals were purchased from Sigma (St. Louis, Mo.). The procedures of NADPH consumption assay were similar to those described in Cox et al., PNAS 1983, 80:4233-4237. On a 96-well polypropylene microplate, dilution series (typical concentrations 60 nM-1.0 mM) of test compounds were prepared in DMSO, of which 4.0 μL each was transferred to a black polystyrene assay microplate and mixed with 36 μL FASN assay buffer (50 mM potassium phosphate, pH 7.0, 1.0 mM EDTA, 0.01% NP-40) plus 5.0 mM fresh DTT. FASN protein (40 μL 150 nM FASN) was added per well, and the microplate was incubated at 37° C. for 30 min. Enzyme activity measurement was initiated by addition of 20 μL 5× substrate mixture to final concentrations of 60 nM FASN, 2.4 nM-40 μM compound, 0.2 mM NADPH, 50 μM butyryl-CoA, 0.5 mM malonyl-CoA in 100 μL assay buffer plus 5.0 mM DTT and 4.0% DMSO. NADPH consumption was monitored kinetically by fluorescence (λEx=340 nm, λEm=460 nm) on an EnVision 2100 multilabel plate reader (Perkin Elmer, Waltham, Mass.). FASN enzyme activity (slope) in the presence of 4% DMSO was used as maximum control, whereas background (minimum control) was measured by omission of malonyl-CoA in the substrate mixture. Inhibition curves were fitted by a logistic function to yield IC50 values:
Compounds were assayed as inhibitors of human FASN using the above-described FASN Scintillation Proximity Flashplate Assay (IC50; nM) or FASN NADPH Consumption Assay (*) (IC50; nM). The corresponding activity of the isolated compound is also provided along with the measured mass (ES^+).

SMILES | pIC50
CCN(C(=O)n1nnn(-c2ccccc2)c1=O)c1ccc(C(=O)O)c(OC)c1 | 6.60 to 7.22
CC(=O)N[C@H]1CCN(C(=O)n2nnn(-c3c(Cl)cccc3Cl)c2=O)C1 | < 5.00
O=C(N1CCc2ccccc2C1)n1nnn(-c2c(F)cccc2F)c1=O | 6.00 to 6.60
C[C@@H]1CC(=O)[C@@H]2CCCC[C@H]2N1C(=O)n1nnn(-c2c(F)cccc2F)c1=O | 5.00 to 6.00
O=C(O)c1ccc2c(c1)CCCN2C(=O)n1nnn(-c2ccccc2)c1=O | 6.60 to 7.22
CCN(C(=O)n1nnn(-c2c(OC)cccc2OC)c1=O)c1ccc(C(=O)OCc2ccccc2)c(OC)c1 | 6.00 to 6.60
CCN(C(=O)n1nnn(-c2ccccc2I)c1=O)C1CCCCC1 | 5.00 to 6.00
CNC(=O)CN(C(=O)n1nnn(-c2c(Cl)cccc2Cl)c1=O)C1CCCCC1 | 5.00 to 6.00
CN(C)C1CCCN(C(=O)n2nnn(-c3c(Cl)cccc3Cl)c2=O)C1 (centres unmarked) | 5.00 to 6.00
CCN(C(=O)n1nnn(-c2ccccc2C(C)(C)C)c1=O)C1CCCCC1 | < 5.00
O=C(N1CCCc2cc(Br)ccc21)n1nnn(-c2c(F)cccc2F)c1=O | 6.60 to 7.22
CCN(C(=O)n1nnn(-c2c(Cl)cccc2Cl)c1=O)c1cccc(N)c1 | 6.60 to 7.22
CCN(C(=O)n1nnn(-c2ccc(N(C)C)cc2)c1=O)C1CCCCC1 | 5.00 to 6.00
CCN(C(=O)n1nnn(-c2c(F)cccc2F)c1=O)c1cc(F)ccc1F | > 7.22
CCN(C(=O)n1nnn(-c2c(Cl)cccc2Cl)c1=O)C1CCCC(C(=O)N2CCOCC2)C1 (centres unmarked) | 5.00 to 6.00
CCN(C(=O)n1nnn(-c2cccc(Cl)c2Cl)c1=O)C1CCCCC1 | 5.00 to 6.00
CCN(C(=O)n1nnn(-c2ccccc2OC)c1=O)c1ccc(C(=O)O)cc1OC | 6.60 to 7.22
CCN(C(=O)n1nnn(-c2cccc3nsnc23)c1=O)C1CCCCC1 | 5.00 to 6.00
Cc1ccccc1CCc1cccc(F)c1-n1nnn(C(=O)N2CCCCc3ccccc32)c1=O | 6.60 to 7.22
CCN(C(=O)n1nnn(-c2c(Cl)cccc2Cl)c1=O)C1CCC(NC(=O)OC(C)(C)C)CC1 (centres unmarked) | < 5.00
CN(C(=O)n1nnn(-c2ccccc2Cl)c1=O)C1CCCCC1 | 5.00 to 6.00
CCN(C(=O)n1nnn(-c2c(Cl)cccc2Cl)c1=O)C1CCC(N(C)C)CC1 (centres unmarked) | < 5.00
CCN(C(=O)n1nnn(-c2c(C)cc(C)cc2C)c1=O)C1CCCCC1 | < 5.00
CCN(C(=O)n1nnn(-c2ccc(F)c(F)c2F)c1=O)C1CCCCC1 | < 5.00
CC(C)N(C(=O)n1nnn(-c2c(Cl)cccc2Cl)c1=O)c1ccccc1 | 6.00 to 6.60
C/C=C(/C)c1ccc(N(C)C(=O)n2nnn(-c3ccccc3Cl)c2=O)cc1 | 6.00 to 6.60
CCCCOc1ccccc1N(CC)C(=O)n1nnn(-c2c(F)cccc2OC)c1=O | 6.00 to 6.60

SMILES | pIC50
CCN(C(=O)n1nnn(-c2c(F)cccc2F)c1=O)c1cccc(F)c1F | > 7.22
CCN(C(=O)n1nnn(-c2c(Cl)cccc2Cl)c1=O)C1CCC(C(=O)OCc2ccc(OC)cc2)CC1 (centres unmarked) | < 5.00
CCN(C(=O)n1nnn(-c2cc(Cl)ccc2Cl)c1=O)C1CCCCC1 | 5.00 to 6.00
CCN(C(=O)n1nnn(-c2c(Cl)cccc2Cl)c1=O)c1ccccc1 | 6.00 to 6.60
CCN(C(=O)n1nnn(-c2c(F)cccc2F)c1=O)c1ccccc1C | 6.60 to 7.22
CCN(C(=O)n1nnn(-c2cccc(OC)c2)c1=O)C1CCCCC1 | < 5.00
C=CCN(C(=O)n1nnn(-c2c(Cl)cccc2Cl)c1=O)c1ccccc1 | 5.00 to 6.00
CN(C(=O)n1nnn(-c2c(F)cccc2F)c1=O)c1cccc(F)c1 | 6.60 to 7.22
CN(C(=O)n1nnn(-c2ccccc2Cl)c1=O)c1ccc(Br)cc1 | 6.60 to 7.22
O=C(N1CCCC2CCCCC21)n1nnn(-c2c(F)cccc2Br)c1=O (centres unmarked) | 6.60 to 7.22
Cc1ccccc1C#Cc1cccc(F)c1-n1nnn(C(=O)N2CCCC3CCCCC32)c1=O (centres unmarked) | 6.60 to 7.22
CCN(C(=O)n1nnn(-c2c(F)cccc2F)c1=O)c1ccc(C(=O)OCc2ccccc2)c(OC)c1 | 6.60 to 7.22
CCN(C(=O)n1nnn(-c2ccccc2OC)c1=O)C1CCCCC1 | 5.00 to 6.00
CCN(C(=O)n1nnn(-c2c(Cl)cccc2Cl)c1=O)C1CCC(C(=O)N2CCN(C)CC2)CC1 (centres unmarked) | < 5.00
CCN(C(=O)n1nnn(-c2cccc(Cl)c2)c1=O)C1CCCCC1 | < 5.00
CCOC(=O)N1CCCC(N(CC)C(=O)n2nnn(-c3c(Cl)cccc3Cl)c2=O)C1 (centres unmarked) | 5.00 to 6.00
COc1ccc(C(=O)OCc2ccccc2)cc1N(CCCCc1ccccc1)C(=O)n1nnn(-c2ccccc2OC)c1=O | 5.00 to 6.00
CCNC(=O)N1CCCC(N(CC)C(=O)n2nnn(-c3c(Cl)cccc3Cl)c2=O)C1 (centres unmarked) | 5.00 to 6.00
CCN(C(=O)n1nnn(-c2cccc(C(F)(F)F)c2)c1=O)C1CCCCC1 | < 5.00
CCN(C(=O)n1nnn(-c2ccccc2Oc2ccccc2)c1=O)c1ccccc1F | 6.60 to 7.22
CCN(C(=O)n1nnn(-c2c(F)cccc2F)c1=O)c1cccc2ccccc12 | 6.60 to 7.22
O=C(N1CCCc2cc([N+](=O)[O-])ccc21)n1nnn(-c2c(F)cccc2F)c1=O | 5.00 to 6.00
O=C(NC1CCCCC1)n1nnn(-c2ccccc2)c1=O | < 5.00
CCN(C(=O)n1nnn(-c2ccccc2Cl)c1=O)C(C)(C)C | < 5.00
CCN(C(=O)n1nnn(-c2c(Cl)cccc2Cl)c1=O)C1CCCC(C(=O)NCC(N)=O)C1 (centres unmarked) | 5.00 to 6.00
CCN(C(=O)n1nnn(-c2ccc(C(F)(F)F)cc2)c1=O)C1CCCCC1 | < 5.00
C/C=C/C/C=C/CCCN(CCC)C(=O)n1nnn(-c2ccccc2Cl)c1=O | 6.00 to 6.60

SMILES | pIC50
COc1cccc(N(C)C(=O)n2nnn(-c3c(F)cccc3F)c2=O)c1 | 6.60 to 7.22
CCN(C(=O)n1nnn(-c2cccs2)c1=O)C1CCCCC1 | 5.00 to 6.00
CCN(C(=O)n1nnn(-c2ccccc2)c1=O)C1CCCCC1 | < 5.00
CN(C(=O)n1nnn(-c2c(F)cccc2F)c1=O)c1ccc(C#Cc2ccccc2)cc1 | 6.60 to 7.22
CCN(C(=O)n1nnn(-c2c(Cl)cccc2Cl)c1=O)c1cc(C(=O)O)ccc1Cl | > 7.22
CCN(C(=O)n1nnn(-c2c(F)cccc2F)c1=O)c1ccc(Cl)cc1 | 6.60 to 7.22
CCN(C(=O)n1nnn(-c2ccccc2OC)c1=O)c1cc(C(=O)O)ccc1OC | 6.60 to 7.22
O=C(N1CCCCc2ccccc21)n1nnn(-c2c(F)cccc2F)c1=O | 6.60 to 7.22
CC(C)(C)OC(=O)NCCN(C(=O)n1nnn(-c2c(Cl)cccc2Cl)c1=O)C1CCCCC1 | < 5.00
CCN(CC)C(=O)C1CCCN(C(=O)n2nnn(-c3c(Cl)cccc3Cl)c2=O)C1 (centres unmarked) | 5.00 to 6.00
O=C(N(CCO)c1ccccc1)n1nnn(-c2c(F)cccc2F)c1=O | 5.00 to 6.00
COc1ccc(CNC(=O)n2nnn(-c3c(Cl)cccc3Cl)c2=O)c(OC)c1 | < 5.00
CCN(C(=O)n1nnn(-c2c(Cl)cccc2Cl)c1=O)c1cccc([N+](=O)[O-])c1 | 6.60 to 7.22
CN(C)C(=O)[C@@H]1CCCN1C(=O)n1nnn(-c2c(Cl)cccc2Cl)c1=O | < 5.00
CC(C)(C)OC(=O)NCCCN(C(=O)n1nnn(-c2c(Cl)cccc2Cl)c1=O)C1CCCCC1 | 5.00 to 6.00
O=C(O)c1ccc(N(CCc2cccnc2)C(=O)n2nnn(-c3c(Cl)cccc3Cl)c2=O)cc1 | 5.00 to 6.00
CCN(C(=O)n1nnn(-c2c(Cl)cccc2Cl)c1=O)C1CCN(C(C)=O)CC1 | 5.00 to 6.00
CC(C)(C)OC(=O)Nc1cccc2c1CCCN2C(=O)n1nnn(-c2c(F)cccc2F)c1=O | 6.60 to 7.22
CC1CCc2ccccc2N1C(=O)n1nnn(-c2c(F)cccc2F)c1=O (centres unmarked) | 6.60 to 7.22
O=C(OCc1ccccc1)c1ccc(N(CCc2ccccc2)C(=O)n2nnn(-c3c(Cl)cccc3Cl)c2=O)cc1 | < 5.00
CCN(C(=O)n1nnn(-c2c(Cl)cccc2Cl)c1=O)c1cccc(C#N)c1 | 6.60 to 7.22
CCN(C(=O)n1nnn(-c2c(Cl)cccc2Cl)c1=O)C1CCN(C(=O)Cc2ccccc2)CC1 | 6.00 to 6.60
CCN(C(=O)n1nnn(-c2ccccc2OC(F)(F)F)c1=O)C1CCCCC1 | 5.00 to 6.00
CN(C(=O)n1nnn(-c2c(F)cccc2F)c1=O)c1ccc(Br)cc1 | 6.60 to 7.22
CC(C)N(C(=O)n1nnn(-c2ccccc2Cl)c1=O)c1ccccc1 | 6.00 to 6.60
O=C(N1CCCc2ccccc21)n1nnn(-c2c(F)cccc2F)c1=O | 6.60 to 7.22
